Reference: the kinase profiling compilation of Christmann-Franck et al. (2016)

Key:
Assay in all cases: KINOMEscan competition binding
Conditions in all cases: compound 10.0 µM
[1] = biological target: OXSR1 (human) (UniProt O95747)
[2] = biological target: MAPK7 (human) (UniProt Q13164)
[3] = biological target: NUAK1 (human) (UniProt O60285)
[4] = biological target: JAK1 JH2 pseudokinase (human) (UniProt P23458)
[5] = biological target: LATS1 (human) (UniProt O95835)
[6] = biological target: SRMS (human) (UniProt Q9H3Y6)
[7] = biological target: ACVR2A (human) (UniProt P27037)
[8] = biological target: TGFBR1 (human) (UniProt P36897)
[9] = biological target: PRKX (human) (UniProt P51817)
[10] = biological target: PRKG2 (human) (UniProt Q13237)
Sequence of PRKG2 (human) (Q13237 whole entry, looked up): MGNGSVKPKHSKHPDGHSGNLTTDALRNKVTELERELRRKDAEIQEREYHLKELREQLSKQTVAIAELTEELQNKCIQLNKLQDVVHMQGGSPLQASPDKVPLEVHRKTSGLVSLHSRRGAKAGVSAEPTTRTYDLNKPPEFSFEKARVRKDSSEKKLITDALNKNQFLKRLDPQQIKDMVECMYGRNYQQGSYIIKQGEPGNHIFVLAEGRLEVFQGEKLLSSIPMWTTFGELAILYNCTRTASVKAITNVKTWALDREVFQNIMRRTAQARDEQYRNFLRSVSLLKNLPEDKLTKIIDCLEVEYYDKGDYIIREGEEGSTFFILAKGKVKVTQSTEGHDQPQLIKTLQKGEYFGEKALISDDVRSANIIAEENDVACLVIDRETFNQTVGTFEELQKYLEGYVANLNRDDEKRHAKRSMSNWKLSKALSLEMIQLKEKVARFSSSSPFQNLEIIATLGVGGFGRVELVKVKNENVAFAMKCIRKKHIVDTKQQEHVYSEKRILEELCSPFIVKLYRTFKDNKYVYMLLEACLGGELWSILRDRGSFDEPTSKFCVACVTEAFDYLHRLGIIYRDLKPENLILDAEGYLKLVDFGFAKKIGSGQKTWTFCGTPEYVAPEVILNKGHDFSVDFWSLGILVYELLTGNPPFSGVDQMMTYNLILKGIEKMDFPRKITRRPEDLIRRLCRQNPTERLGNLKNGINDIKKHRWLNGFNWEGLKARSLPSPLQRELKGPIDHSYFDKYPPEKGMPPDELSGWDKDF

[11] = biological target: DAPK2 (human) (UniProt Q9UIK4)
[12] = biological target: PRKCQ (human) (UniProt Q04759)
[13] = biological target: IRAK3 (human) (UniProt Q9Y616)
[14] = biological target: NEK7 (human) (UniProt Q8TDX7)
[15] = biological target: LYN (human) (UniProt P07948)
[16] = biological target: PRKCE (human) (UniProt Q02156)
[17] = biological target: CSK (human) (UniProt P41240)
[18] = biological target: ADCK3 (human) (UniProt Q8NI60)
[19] = biological target: STK38L (human) (UniProt Q9Y2H1)
[20] = biological target: PRKCD (human) (UniProt Q05655)
Sequence of PRKCD (human) (Q05655 whole entry, looked up): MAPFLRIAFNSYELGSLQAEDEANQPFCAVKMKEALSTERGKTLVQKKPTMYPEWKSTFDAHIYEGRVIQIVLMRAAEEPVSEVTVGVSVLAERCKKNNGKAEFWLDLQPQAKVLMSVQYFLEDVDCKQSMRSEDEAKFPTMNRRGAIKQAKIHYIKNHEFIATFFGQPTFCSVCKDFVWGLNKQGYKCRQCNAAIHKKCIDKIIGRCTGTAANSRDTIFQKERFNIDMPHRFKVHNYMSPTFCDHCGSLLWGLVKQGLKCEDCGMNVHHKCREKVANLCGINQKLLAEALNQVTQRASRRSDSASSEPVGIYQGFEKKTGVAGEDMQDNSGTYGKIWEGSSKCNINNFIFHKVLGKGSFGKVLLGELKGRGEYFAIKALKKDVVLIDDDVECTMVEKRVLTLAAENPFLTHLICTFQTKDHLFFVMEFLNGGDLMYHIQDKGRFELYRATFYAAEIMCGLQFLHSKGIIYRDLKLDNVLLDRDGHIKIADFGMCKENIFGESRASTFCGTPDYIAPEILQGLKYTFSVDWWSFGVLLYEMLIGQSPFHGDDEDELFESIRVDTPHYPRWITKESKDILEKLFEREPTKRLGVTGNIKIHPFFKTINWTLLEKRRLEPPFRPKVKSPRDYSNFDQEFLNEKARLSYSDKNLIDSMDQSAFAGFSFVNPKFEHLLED

[21] = biological target: PRKAA2 (human) (UniProt P54646)
[22] = biological target: PIK3CD (human) (UniProt O00329)
[23] = biological target: CDK4 CCND1 (human) (UniProt P11802+P24385)
[24] = biological target: SRPK1 (human) (UniProt Q96SB4)
[25] = biological target: TNK1 (human) (UniProt Q13470)
[26] = biological target: MAPKAPK5 (human) (UniProt Q8IW41)
[27] = system: BMX (human), P51813 [V600E]
Sequence of BMX (human), P51813 [V600E] (P51813 whole entry, looked up, stated change not applied): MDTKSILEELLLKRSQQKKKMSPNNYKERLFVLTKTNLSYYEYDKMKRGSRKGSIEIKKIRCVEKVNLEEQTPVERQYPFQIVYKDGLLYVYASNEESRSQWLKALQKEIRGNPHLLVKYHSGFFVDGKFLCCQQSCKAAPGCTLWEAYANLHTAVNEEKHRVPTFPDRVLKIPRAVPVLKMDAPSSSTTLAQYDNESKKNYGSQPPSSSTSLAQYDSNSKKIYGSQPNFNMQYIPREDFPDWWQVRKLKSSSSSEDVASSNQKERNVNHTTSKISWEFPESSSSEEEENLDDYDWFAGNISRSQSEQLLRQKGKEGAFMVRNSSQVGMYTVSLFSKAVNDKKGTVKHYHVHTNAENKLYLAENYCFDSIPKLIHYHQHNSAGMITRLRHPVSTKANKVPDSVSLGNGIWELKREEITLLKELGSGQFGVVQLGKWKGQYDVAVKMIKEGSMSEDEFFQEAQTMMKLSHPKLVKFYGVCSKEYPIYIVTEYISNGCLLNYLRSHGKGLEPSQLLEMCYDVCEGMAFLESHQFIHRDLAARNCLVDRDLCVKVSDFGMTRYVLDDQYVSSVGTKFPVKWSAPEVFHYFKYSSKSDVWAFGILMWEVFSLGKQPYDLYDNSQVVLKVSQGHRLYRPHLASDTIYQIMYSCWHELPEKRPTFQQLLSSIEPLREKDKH

[28] = biological target: IRAK1 (human) (UniProt P51617)
[29] = biological target: TEC (human) (UniProt P42680)
[30] = biological target: MAST1 (human) (UniProt Q9Y2H9)
[31] = biological target: MAP3K4 (human) (UniProt Q9Y6R4)
[32] = biological target: AKT2 (human) (UniProt P31751)
Sequence of AKT2 (human) (P31751 whole entry, looked up): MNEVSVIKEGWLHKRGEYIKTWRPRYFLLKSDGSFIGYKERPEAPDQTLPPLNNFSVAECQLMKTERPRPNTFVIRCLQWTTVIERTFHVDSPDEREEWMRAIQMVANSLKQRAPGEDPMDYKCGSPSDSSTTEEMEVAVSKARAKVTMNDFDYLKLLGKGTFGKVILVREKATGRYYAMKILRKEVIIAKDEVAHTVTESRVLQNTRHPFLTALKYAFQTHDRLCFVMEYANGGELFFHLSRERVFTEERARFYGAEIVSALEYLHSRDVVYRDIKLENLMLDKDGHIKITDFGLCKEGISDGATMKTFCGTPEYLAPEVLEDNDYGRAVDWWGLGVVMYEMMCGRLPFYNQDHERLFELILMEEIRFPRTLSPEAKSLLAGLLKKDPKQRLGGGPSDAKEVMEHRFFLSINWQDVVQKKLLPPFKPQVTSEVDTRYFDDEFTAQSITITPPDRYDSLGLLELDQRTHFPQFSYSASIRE

[33] = biological target: TNNI3K (human) (UniProt Q59H18)
[34] = biological target: STK25 (human) (UniProt O00506)
Sequence of STK25 (human) (O00506 whole entry, looked up): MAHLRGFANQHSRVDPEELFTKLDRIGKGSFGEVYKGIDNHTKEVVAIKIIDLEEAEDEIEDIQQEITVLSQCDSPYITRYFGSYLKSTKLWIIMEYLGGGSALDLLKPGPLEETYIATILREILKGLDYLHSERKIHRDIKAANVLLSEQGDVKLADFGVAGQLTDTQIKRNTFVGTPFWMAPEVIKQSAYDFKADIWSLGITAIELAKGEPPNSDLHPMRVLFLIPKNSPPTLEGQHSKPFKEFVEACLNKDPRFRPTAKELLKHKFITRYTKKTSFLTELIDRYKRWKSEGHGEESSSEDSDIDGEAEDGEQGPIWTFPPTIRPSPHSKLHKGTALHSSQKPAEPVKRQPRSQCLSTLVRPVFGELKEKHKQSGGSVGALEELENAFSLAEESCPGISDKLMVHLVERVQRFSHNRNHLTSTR

[35] = biological target: PRKD3 (human) (UniProt O94806)
Sequence of PRKD3 (human) (O94806 whole entry, looked up): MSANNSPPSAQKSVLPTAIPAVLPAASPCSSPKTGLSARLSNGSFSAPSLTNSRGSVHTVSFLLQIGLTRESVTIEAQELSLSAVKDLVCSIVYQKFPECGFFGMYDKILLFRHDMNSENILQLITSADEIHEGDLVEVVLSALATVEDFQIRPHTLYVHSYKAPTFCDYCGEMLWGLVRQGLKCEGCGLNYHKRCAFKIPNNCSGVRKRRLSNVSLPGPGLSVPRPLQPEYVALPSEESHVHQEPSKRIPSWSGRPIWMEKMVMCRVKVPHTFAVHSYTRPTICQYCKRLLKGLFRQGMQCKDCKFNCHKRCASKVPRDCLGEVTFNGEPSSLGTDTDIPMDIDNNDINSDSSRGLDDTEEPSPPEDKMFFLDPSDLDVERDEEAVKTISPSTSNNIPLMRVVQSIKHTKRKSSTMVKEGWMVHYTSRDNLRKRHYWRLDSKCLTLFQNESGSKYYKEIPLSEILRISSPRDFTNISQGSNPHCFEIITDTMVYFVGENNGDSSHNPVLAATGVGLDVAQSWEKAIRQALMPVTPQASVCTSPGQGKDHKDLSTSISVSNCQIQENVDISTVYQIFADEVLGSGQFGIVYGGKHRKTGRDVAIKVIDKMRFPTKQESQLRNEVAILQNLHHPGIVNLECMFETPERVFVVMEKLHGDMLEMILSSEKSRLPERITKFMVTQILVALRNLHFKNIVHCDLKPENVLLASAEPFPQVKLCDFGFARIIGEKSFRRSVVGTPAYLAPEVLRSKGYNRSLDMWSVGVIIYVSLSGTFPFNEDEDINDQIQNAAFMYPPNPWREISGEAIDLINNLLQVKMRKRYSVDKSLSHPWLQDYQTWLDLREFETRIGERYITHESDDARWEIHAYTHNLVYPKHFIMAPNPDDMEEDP

[36] = biological target: NEK3 (human) (UniProt P51956)
[37] = biological target: RIPK4 (human) (UniProt P57078)
[38] = biological target: LATS2 (human) (UniProt Q9NRM7)
[39] = biological target: MYLK4 (human) (UniProt Q86YV6)
[40] = biological target: MAP3K11 (human) (UniProt Q16584)

Sequence of JAK1 JH2 pseudokinase (human) (P23458 whole entry, looked up): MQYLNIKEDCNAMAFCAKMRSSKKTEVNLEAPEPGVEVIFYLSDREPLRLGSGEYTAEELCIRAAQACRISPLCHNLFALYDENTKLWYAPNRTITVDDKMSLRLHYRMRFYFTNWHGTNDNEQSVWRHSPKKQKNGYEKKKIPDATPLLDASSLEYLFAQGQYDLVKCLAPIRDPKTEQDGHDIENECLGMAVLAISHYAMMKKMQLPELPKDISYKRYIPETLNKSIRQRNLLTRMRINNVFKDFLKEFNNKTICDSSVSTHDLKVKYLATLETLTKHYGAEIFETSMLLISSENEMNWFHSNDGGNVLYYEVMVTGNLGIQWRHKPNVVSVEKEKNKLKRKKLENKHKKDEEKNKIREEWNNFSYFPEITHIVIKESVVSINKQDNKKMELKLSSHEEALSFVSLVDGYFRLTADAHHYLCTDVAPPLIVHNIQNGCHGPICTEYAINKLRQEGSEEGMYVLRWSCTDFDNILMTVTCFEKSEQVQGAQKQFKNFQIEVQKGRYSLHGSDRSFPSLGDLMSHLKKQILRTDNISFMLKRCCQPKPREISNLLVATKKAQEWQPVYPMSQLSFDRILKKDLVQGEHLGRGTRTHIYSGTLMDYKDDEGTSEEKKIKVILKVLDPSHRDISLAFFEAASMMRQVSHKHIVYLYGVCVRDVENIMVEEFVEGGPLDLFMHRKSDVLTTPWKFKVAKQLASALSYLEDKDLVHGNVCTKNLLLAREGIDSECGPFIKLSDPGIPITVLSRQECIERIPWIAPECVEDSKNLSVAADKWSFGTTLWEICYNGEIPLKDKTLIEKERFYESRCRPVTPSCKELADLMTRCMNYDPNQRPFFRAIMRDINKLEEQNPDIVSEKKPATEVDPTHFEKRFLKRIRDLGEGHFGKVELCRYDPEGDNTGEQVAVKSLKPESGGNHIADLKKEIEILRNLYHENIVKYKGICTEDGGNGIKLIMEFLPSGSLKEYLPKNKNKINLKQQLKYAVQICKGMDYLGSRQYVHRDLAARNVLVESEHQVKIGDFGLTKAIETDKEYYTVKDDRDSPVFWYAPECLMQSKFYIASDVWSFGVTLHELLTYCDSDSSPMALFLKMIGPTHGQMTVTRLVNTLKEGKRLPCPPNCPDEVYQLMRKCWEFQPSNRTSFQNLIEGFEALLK

CC1=C(C(=O)Nc2cc3cn[nH]c3cc2F)C(c2ccc(C(F)(F)F)cc2)CC(=O)N1 (stereo not drawn)
kinase still bound, per cent of control [1]: 92%
kinase still bound, per cent of control [2]: 82%
kinase still bound, per cent of control [3]: 28%
kinase still bound, per cent of control [4]: 100%
kinase still bound, per cent of control [5]: 60%
kinase still bound, per cent of control [6]: 58%
kinase still bound, per cent of control [7]: 88%
kinase still bound, per cent of control [8]: 100%
kinase still bound, per cent of control [9]: 14%
kinase still bound, per cent of control [10]: 29%
kinase still bound, per cent of control [11]: 92%
kinase still bound, per cent of control [12]: 54%
kinase still bound, per cent of control [13]: 85%
kinase still bound, per cent of control [14]: 78%
kinase still bound, per cent of control [15]: 72%
kinase still bound, per cent of control [16]: 100%
kinase still bound, per cent of control [17]: 100%
kinase still bound, per cent of control [18]: 76%
kinase still bound, per cent of control [19]: 12%
kinase still bound, per cent of control [20]: 39%
kinase still bound, per cent of control [21]: 25%
kinase still bound, per cent of control [22]: 98%
kinase still bound, per cent of control [23]: 71%
kinase still bound, per cent of control [24]: 100%
kinase still bound, per cent of control [25]: 33%
kinase still bound, per cent of control [26]: 100%
kinase still bound, per cent of control [27]: 87%
kinase still bound, per cent of control [28]: 90%
kinase still bound, per cent of control [29]: 19%
kinase still bound, per cent of control [30]: 77%
kinase still bound, per cent of control [31]: 97%
kinase still bound, per cent of control [32]: 64%
kinase still bound, per cent of control [33]: 78%
kinase still bound, per cent of control [34]: 64%
kinase still bound, per cent of control [35]: 81%
kinase still bound, per cent of control [36]: 100%
kinase still bound, per cent of control [37]: 98%
kinase still bound, per cent of control [38]: 10%
kinase still bound, per cent of control [39]: 88%
kinase still bound, per cent of control [40]: 100%

CCc1nc(-c2cccc(C)c2)c(-c2ccnc(NC(=O)c3ccccc3)c2)s1
kinase still bound, per cent of control [1]: 100%
kinase still bound, per cent of control [2]: 98%
kinase still bound, per cent of control [3]: 100%
kinase still bound, per cent of control [4]: 70%
kinase still bound, per cent of control [5]: 100%
kinase still bound, per cent of control [6]: 83%
kinase still bound, per cent of control [7]: 70%
kinase still bound, per cent of control [9]: 100%
kinase still bound, per cent of control [10]: 100%
kinase still bound, per cent of control [11]: 88%
kinase still bound, per cent of control [12]: 100%
kinase still bound, per cent of control [13]: 84%
kinase still bound, per cent of control [14]: 100%
kinase still bound, per cent of control [15]: 54%
kinase still bound, per cent of control [16]: 87%
kinase still bound, per cent of control [17]: 88%
kinase still bound, per cent of control [18]: 0.2%
kinase still bound, per cent of control [19]: 96%
kinase still bound, per cent of control [20]: 50%
kinase still bound, per cent of control [21]: 100%
kinase still bound, per cent of control [22]: 100%
kinase still bound, per cent of control [23]: 84%
kinase still bound, per cent of control [24]: 100%
kinase still bound, per cent of control [25]: 88%
kinase still bound, per cent of control [26]: 100%
kinase still bound, per cent of control [27]: 23%
kinase still bound, per cent of control [28]: 99%
kinase still bound, per cent of control [29]: 100%
kinase still bound, per cent of control [30]: 100%
kinase still bound, per cent of control [31]: 85%
kinase still bound, per cent of control [32]: 80%
kinase still bound, per cent of control [33]: 86%
kinase still bound, per cent of control [34]: 84%
kinase still bound, per cent of control [35]: 26%
kinase still bound, per cent of control [36]: 100%
kinase still bound, per cent of control [37]: 90%
kinase still bound, per cent of control [38]: 90%
kinase still bound, per cent of control [39]: 100%
kinase still bound, per cent of control [40]: 70%

CCN(CCO)CCCOc1ccc2c(Nc3cc(CC(=O)Nc4cccc(F)c4)[nH]n3)ncnc2c1
kinase still bound, per cent of control [1]: 100%
kinase still bound, per cent of control [2]: 87%
kinase still bound, per cent of control [3]: 60%
kinase still bound, per cent of control [4]: 100%
kinase still bound, per cent of control [5]: 100%
kinase still bound, per cent of control [6]: 29%
kinase still bound, per cent of control [7]: 100%
kinase still bound, per cent of control [8]: 98%
kinase still bound, per cent of control [9]: 66%
kinase still bound, per cent of control [10]: 92%
kinase still bound, per cent of control [11]: 89%
kinase still bound, per cent of control [12]: 100%
kinase still bound, per cent of control [13]: 37%
kinase still bound, per cent of control [14]: 94%
kinase still bound, per cent of control [15]: 18%
kinase still bound, per cent of control [16]: 100%
kinase still bound, per cent of control [17]: 24%
kinase still bound, per cent of control [18]: 85%
kinase still bound, per cent of control [19]: 100%
kinase still bound, per cent of control [20]: 91%
kinase still bound, per cent of control [21]: 77%
kinase still bound, per cent of control [22]: 88%
kinase still bound, per cent of control [23]: 92%
kinase still bound, per cent of control [24]: 100%
kinase still bound, per cent of control [25]: 86%
kinase still bound, per cent of control [26]: 100%
kinase still bound, per cent of control [27]: 100%
kinase still bound, per cent of control [28]: 63%
kinase still bound, per cent of control [29]: 78%
kinase still bound, per cent of control [30]: 90%
kinase still bound, per cent of control [31]: 90%
kinase still bound, per cent of control [32]: 90%
kinase still bound, per cent of control [33]: 100%
kinase still bound, per cent of control [34]: 66%
kinase still bound, per cent of control [35]: 63%
kinase still bound, per cent of control [36]: 100%
kinase still bound, per cent of control [37]: 41%
kinase still bound, per cent of control [38]: 52%
kinase still bound, per cent of control [40]: 100%
